Measurements reported in patent publication US20250170141A1, “MRGPRX2 MODULATORS AND RELATED METHODS OF TREATMENT” (Escient Pharmaceuticals, Inc., priority 2023, published 2025).
Converted amounts (≈) assume the structure as drawn. Where two headings read alike, the source gives them in different places.

Key:
human MRGPRX2 = target: T1, human MRGPRX2 (Homo sapiens, UniProt Q96LB1); assay: MRGPRX2 activity: IP-One Gq HTRF assay in CHO cells, antagonism versus 0.3 uM Cortistatin-14; type: cell-based; conditions: versus 0.3 uM Cortistatin-14 agonist, CHO cells expressing human MRGPRX2, read-out: MRGPRX2 Antagonist Activity
T1 construct: expressed in transfected cells; host or cells: CHO cells, stably transfected (G418 and Hygromycin B selection)
T1 sequence (Q96LB1 1-330): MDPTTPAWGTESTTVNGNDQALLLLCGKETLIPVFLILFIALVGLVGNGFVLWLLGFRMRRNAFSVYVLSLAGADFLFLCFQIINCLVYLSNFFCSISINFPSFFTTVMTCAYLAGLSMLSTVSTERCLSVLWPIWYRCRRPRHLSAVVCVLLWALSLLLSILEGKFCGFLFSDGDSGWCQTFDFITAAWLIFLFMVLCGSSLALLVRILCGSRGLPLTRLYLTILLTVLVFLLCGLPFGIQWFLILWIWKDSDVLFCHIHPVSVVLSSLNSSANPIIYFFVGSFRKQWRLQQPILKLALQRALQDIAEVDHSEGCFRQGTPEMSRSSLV
Outline: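 CHO cells stably expressing human MRGPRX2 were treated with a 10-point compound curve (30 uM top, 1:3) plus 0.3 μM Cortistatin-14 in LiCl-containing Tris buffer, pH 8. Incubation was 1 h at 37 °C then 1 h at room temperature; IP-1 was detected by HTRF and IC50 came from the HTRF ratio.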

Human LAD2 cells = assay: Mast Cell Beta-Hexosaminidase Release Assay (LAD2 cells, 500 nM Cortistatin-14); type: cell-based; conditions: read-out: MRGPRX2 Antagonist Activity
Description: Human LAD2 cells (NIH) were maintained in an incubator at 37° C. with 5% CO2 and cultured in StemPro-34 serum-free media (Gibco 10639011) supplemented with 2 mM L-glutamine, 100 U/ml penicillin, […] streptomycin and 100 ng/ml SCF (Invitrogen PEP0860), at a concentration of 2-5×10^5 cells/mL, with hemidepletion every 1-2 weeks.
Cells were transferred to SCF-Free medium at 2.5×10^5 cells/mL and kept in an incubator overnight. On the day of the assay, cells were washed twice in Assay Buffer (final concentrations 10 mM HEPES, 137 mM NaCl, 5.6 mM D-glucose, 2.7 mM KCl, 1 mM MgCl, 1.8 mM CalCl2, 0.4 mM Na2HPO4·7H2O, 0.04% BSA, pH=7.4) and plated in a 96-well v-bottom plate at 20,000 cells per well in 80 μL Assay Buffer. Antagonist compounds solubilized at 10 mM in DMSO were diluted in Assay Buffer to 10× final desired concentrations as a 10-point curve (10 μM final top concentration with 1:3 serial dilutions) and 10 μL added per well. Plates were then incubated for 1 hour at 37° C. Agonists were diluted in Assay Buffer to 10× desired concentrations and 10 μL of the appropriate agonist added to each well. The final concentration of Cortistatin-14 (Tocris 3374) used in antagonist assays was 500 nM. Final concentrations of DMSO were kept consistent across the plate. Plates were then incubated in a warm air oven for 30 minutes at 37° C., followed by centrifugation at 4° C. for 5 minutes at 450×g. 50 μL supernatant from each well was then transferred to a 96-well flat bottom plate containing 100 μL substrate solution per well (3.5 mg/mL p-Nitrophenyl-N-acetyl-o-D-glucosaminide (Sigma 487052) in Citrate Buffer containing a final concentration of 40 mM Citric Acid, 20 mM Na2HPO4·7H2O, pH=4.5). To the cell pellets left in the remaining assay buffer, 150 μL 0.1% Triton-X-100 was then added to each well, resuspended by pipetting up and down, and 50 μL cell lysates transferred to a second 96-well flat bottom plate containing 100 μL substrate solution per well. Plates containing transferred supernatant and cell lysates were then incubated in a warm air oven for 90 minutes at 37° C. After incubation, 50 μL of 400 mM Glycine buffer (pH 10.7) was added into each well and the plate was read on a Molecular Devices SpectraMax iD5 plate reader (absorbance at 405 nm with reference filter at 620 nm). After background subtraction, the percentage degranulation (percent beta-hexosaminidase release) was calculated as 100×(supernatant values)/(supernatant+lysate values), followed by analysis using GraphPad Prism software to calculate an IC50 value for each compound.
The activity ranges are denoted as follows: “+++++” denotes antagonist activity <100 nM; “++++” denotes antagonist activity between 100 and 500 nM; “+++” denotes activity between 501 and 1000 nM; “++” denotes activity between 1001 and 2500 nM; and “+” denotes activity >2500 nM.

[1] = Mouse Pharmacokinetic Studies (50 mg/kg oral gavage, plasma LC-MS/MS); type: in vivo; conditions: male C57BL/6 mice, non-fasted
Description: Compounds were formulated in 5% DMSO, 5% Solutol, and 90% PBS without Ca and Mg (pH 7.4) at a concentration of […]. Male C57BL/6 mice (n=6/compound) were administered a 50 mg/kg dose of each compound by oral gavage under a non-fasted condition. Blood samples were collected via the Submandibular vein onto K2-EDTA at 0.5, 1, 2, 4, 8 and 24 hours after dosing, and plasma was prepared and stored at −80° C. until analysis. Plasma sample preparation for analysis was done by protein precipitation using acetonitrile (including Verapamil as an internal standard) followed by centrifugation. Compound concentrations were determined in extracted plasma using LC-MS/MS relative to a 12-point standard curve covering the 1 to 4000 nM range. Non-compartmental analysis using Phoenix WinNonlin was used to estimate pharmacokinetic parameters including area under the curve, clearance, and half-life. The administered dose was confirmed by analysis of residual dosing material by UPLC-UV relative to a single point calibration sample.

[2] = Solubility Studies in FaSSIF, FeSSIF, FaSSGF (24 hours, room temperature, UPLC-UV); type: physicochemical; conditions: kinetic from dmso stock, 24 hours at room temperature
Description: Media according to Biorelevant Media protocols was prepared. 10 μL of 10 mM in DMSO stock solutions of test compounds was added to 96-well deep plate. 490 μL of FaSSIF, FeSSIF, or FaSSGF was then added into appropriate wells of 96-well deep plate. The plate was vortexed for 2 minutes then placed on a plate shaker for 24 hours at room temperature. The plate was centrifuged for 20 minutes, then supernatant was collected and filtered with […] syringe filter into UPLC vials for injection into UPLC-UV system. Concentration was calculated with a 3-point standard curve.

[3] = Mast Cell Beta-Hexosaminidase Release Assay
[4] = fassgf or other biorelevant, solubility in FaSSGF, read-out: FaSSGF
[5] = solubility in FaSSIF, read-out: FaSSIF
[6] = solubility in FeSSIF, read-out: FeSSIF
[7] = Homo sapiens, LAD2, Mast Cell Beta-Hexosaminidase Release Assay
[8] = male, C57BL/6, mouse, po, 50 mg/kg

Compound | IC50 (human MRGPRX2) | IC50 (Human LAD2 cells; [3]) | Cmax ([1]; 50 mg/kg) | T1/2 ([1]; 50 mg/kg) | TBC ([1]; 50 mg/kg) | solubility kinetic at 24 h [2, 4] | solubility kinetic at 24 h [2, 5] | solubility kinetic at 24 h [2, 6] | IC50 (Human LAD2 cells; [7]) | TBC [1] | Cmax [1, 8] | half-life [1, 8]
CC(c1ccccc1F)c1c(F)ccc2c1NC(NCc1ncccc1F)=NS2(=O)=O (single isomer, unassigned) [Compound 10-1B] | < 100 nM | < 100 nM | 14 µM | 1.8 h | 9 mL/min/kg | 61 µM (≈ 27.2 µg/mL) | 133 µM (≈ 59.4 µg/mL) | 200 µM (≈ 89.3 µg/mL) |  |  |  | 
C[C@@H](c1ccccc1F)c1c(F)c(F)cc2c1NC(NCc1ncccc1F)=NS2(=O)=O [Compound 10-6A, (S)-6,7-difluoro-5-(1-(2-fluorophenyl)ethyl)-3-(((3-fluoropyridin-2-yl)methyl)amino)-4H-benzo[e][1,2,4]thiadiazine 1,1-dioxide] | < 100 nM |  |  |  |  | 27 µM (≈ 12.5 µg/mL) | 30 µM (≈ 13.9 µg/mL) | 178 µM (≈ 82.7 µg/mL) | < 100 nM | 11 mL/min/kg | 11 µM | 2.1 h
O=S1(=O)N=C(NCc2ncccc2F)Nc2c(Oc3ccccc3Cl)cc(F)cc21 [Compound 1-264, 5-(2-chlorophenoxy)-7-fluoro-3-(((3-fluoropyridin-2-yl)methyl)amino)-4H-benzo[e][1,2,4]thiadiazine 1,1-dioxide] | < 100 nM |  |  |  |  | < 12.5 µM | < 12.5 µM | < 12.5 µM | < 100 nM | 32 mL/min/kg | 1.1 µM | 3.8 h
CC(c1ccccc1F)c1c(F)ccc2c1NC(NCc1cccc(F)c1)=NS2(=O)=O (single isomer, unassigned) [Compound 10-5A] | < 100 nM | 1000 to 2500 nM | 2.8 µM |  | 50 mL/min/kg |  |  |  |  |  |  | 2.2 h
CC(c1ccccc1F)c1c(F)ccc2c1NC(NCc1cccc(F)n1)=NS2(=O)=O (single isomer, unassigned) [Compound 10-2A] | < 100 nM | 501 to 1000 nM | 2.7 µM | 3.0 h | 30 mL/min/kg |  |  |  |  |  |  | 
CC(c1ccccc1F)c1c(F)ccc2c1NC(NCc1cccc(F)c1)=NS2(=O)=O (single isomer, unassigned) [Compound 10-5B] | < 100 nM | < 100 nM | 7.1 µM | 2.5 h | 12 mL/min/kg | < 3.1 µM | 158 µM (≈ 70.4 µg/mL) | 136 µM (≈ 60.6 µg/mL) |  |  |  | 
CC(c1ccc(F)cc1)c1c(F)ccc2c1NC(NCc1ncccc1F)=NS2(=O)=O (single isomer, unassigned) [Compound 10-4B] | < 100 nM | < 100 nM | 10 µM | 2.2 h | 12 mL/min/kg | 3 µM (≈ 1.34 µg/mL) | 23 µM (≈ 10.3 µg/mL) | 37 µM (≈ 16.5 µg/mL) |  |  |  | 
Cc1c(F)cccc1CNC1=NS(=O)(=O)c2ccc(F)c(C(C)c3ccccc3F)c2N1 (single isomer, unassigned) [Compound 10-3B] | < 100 nM | < 100 nM | 4.2 µM | 2 h | 41 mL/min/kg |  |  |  |  |  |  | 
CC(c1ccccc1F)c1c(F)ccc2c1NC(NCc1ncccc1F)=NS2(=O)=O (single isomer, unassigned) [Compound 10-1A] | < 100 nM |  | 4.6 µM |  | 26 mL/min/kg |  |  |  | 100 to 500 nM |  |  | 2.6 h
CC(c1ccccc1F)c1c(F)ccc2c1NC(NCc1ncccc1F)=NS2(=O)=O (centres unmarked) [Compound 9-1, 6-fluoro-5-(1-(2-fluorophenyl)ethyl)-3-(((3-fluoropyridin-2-yl)methyl)amino)-4H-benzo[e][1,2,4]thiadiazine 1,1-dioxide] | < 100 nM |  |  |  |  | 19 µM (≈ 8.48 µg/mL) | 114 µM (≈ 50.9 µg/mL) | 74 µM (≈ 33 µg/mL) | < 100 nM | 13 mL/min/kg | 8.7 µM | 1.8 h
CC(c1ccccc1F)c1c(F)ccc2c1NC(NCc1cccc(F)n1)=NS2(=O)=O (single isomer, unassigned) [Compound 10-2B] | < 100 nM | < 100 nM |  |  | 27 mL/min/kg | 11 µM (≈ 4.91 µg/mL) | 162 µM (≈ 72.3 µg/mL) | 186 µM (≈ 83 µg/mL) |  |  | 4.4 µM | 2.3 h
O=S1(=O)N=C(NCc2ncccc2F)Nc2c1ccc(F)c2Oc1ccccc1Cl [Compound 2-1, 5-(2-chlorophenoxy)-6-fluoro-3-(((3-fluoropyridin-2-yl)methyl)amino)-4H-benzo[e][1,2,4]thiadiazine 1,1-dioxide] | < 100 nM |  |  |  |  | < 12.5 µM | < 12.5 µM | < 12.5 µM | 100 to 500 nM | 8.8 mL/min/kg | 11 µM | 2.8 h
CC(c1ccc(F)cc1)c1c(F)ccc2c1NC(NCc1ncccc1F)=NS2(=O)=O (single isomer, unassigned) [Compound 10-4A] | < 100 nM |  |  |  | 11 mL/min/kg |  |  |  | 100 to 500 nM |  | 9.6 µM | 4.4 h
